According to patent publication US5688507A, “Methods and compositions for inhibiting thrombogenesis” (Hamilton Civic Hospitals Research Development, Inc., priority 1995, dated 1997):

Experiments:
fibrin I (desAA fibrin) = experiment: Solid-phase binding of 125I-thrombin to fibrin-coated microtiter wells (ovalbumin-coated wells as non-specific control); conditions: increasing concentrations, 2 h at 37° C., ovalbumin-well binding subtracted (FIG. 4)
Method: To examine the ability of various agents to displace thrombin from fibrin, a solid-phase system was developed wherein fibrin was immobilized on the surface of a microtiter plate well. Radiolabeled thrombin was then bound to the fibrin-coated surface, and after washing, the ability of various agents to displace the bound thrombin was evaluated. In this model, the binding of thrombin to immobilized ovalbumin serves as an index of nonspecific binding. The details of the model are as follows: after adding 100 μl of fibrinogen or ovalbumin (each at a concentration of 1 mg/ml) to the wells of microtiter plate, the plates were incubated for 18 hours at 4° C. The wells were then washed three times with 250 μl aliquots of phosphate buffered saline, pH 7.4, containing 0.1% ovalbumin and 6 mg/ml PEG 8,000 (POP buffer). Based on preliminary studies using radiolabeled fibrinogen or ovalbumin, each well bound 1.3±0.2 μg of fibrinogen, or 1.0±0.1 μg of ovalbumin. […] The reptilase completely converted the immobilized fibrinogen to fibrin I because quantitative amounts of fibrinopeptide A (2 mol fibrinopeptide A/mol of bound fibrinogen) was recovered in the supernatant buffer. […] At the end of the incubation period, the wells were washed three times and then counted to determine the concentration of thrombin bound to the fibrin-coated (+) or ovalbumin-coated (.largecircle.) wells (FIG. 4). […]

fibrin = conditions: stated without experiment; cited from earlier work

specific binding to fibrin-coated wells (fibrin I (desAA fibrin)): binds to fibrin in a saturable manner
Substance: thrombin
native binding affinity between fibrin and thrombin in thrombus (fibrin): about 5×10^-5 M^-1
